Data published in the NIST ThermoML archive (doi:10.1021/acs.jced.7b00898).
Numbers after ± are expanded uncertainties.

Assay: xn = mol fraction of the nth substance listed
Details: 100 kPa, Liquid; for electrical conductivity: Alternating current cell with electrodes; for viscosity: Falling or rolling sphere viscometry; for mass density: Vibrating tube method

C[n+]1ccn(CCCC#N)c1.F[B-](F)(F)F [1-butyronitrile-3-methylimidazolium tetrafluoroborate] + CC#N
Details	electrical conductivity [S/m]	mass density [kg/m3]	viscosity [mPa·s]
288.15 K, x1 = 0.1004	3.71 ± 0.5	951.03 ± 1.9	1.783 ± 0.18
288.15 K, x1 = 0.2003	2.62 ± 0.41	1058.56 ± 2.1	5.545 ± 0.56
288.15 K, x1 = 0.3013	1.68 ± 0.31	1131.24 ± 2.3	13.17 ± 1.3
288.15 K, x1 = 0.3996	1.05 ± 0.24	1179.83 ± 2.4	30.38 ± 3.1
288.15 K, x1 = 0.4999	0.558 ± 0.17	1218.22 ± 2.5	72.81 ± 7.3
288.15 K, x1 = 0.5996	0.365 ± 0.14	1248.27 ± 2.5	105.8 ± 11
288.15 K, x1 = 0.7001	0.28 ± 0.12	1271.85 ± 2.6	150.9 ± 16
288.15 K, x1 = 0.8024	0.157 ± 0.093	1289.62 ± 2.6	287 ± 33
288.15 K, x1 = 0.8885	0.126 ± 0.083	1302.35 ± 2.6	372.8 ± 44
288.15 K, x1 = 1	0.058 ± 0.056	1316.07 ± 2.7	590.6 ± 74
293.15 K, x1 = 0.1004	3.98 ± 0.53	946.91 ± 1.9	1.645 ± 0.17
293.15 K, x1 = 0.2003	2.89 ± 0.43	1054.28 ± 2.1	4.901 ± 0.49
293.15 K, x1 = 0.3013	1.93 ± 0.34	1126.73 ± 2.3	11.15 ± 1.1
293.15 K, x1 = 0.3996	1.24 ± 0.26	1175.56 ± 2.4	24.74 ± 2.5
293.15 K, x1 = 0.4999	0.685 ± 0.19	1214.12 ± 2.4	56.55 ± 5.7
293.15 K, x1 = 0.5996	0.467 ± 0.16	1244.16 ± 2.5	80.64 ± 8.2
293.15 K, x1 = 0.7001	0.352 ± 0.14	1268.21 ± 2.6	113.9 ± 12
293.15 K, x1 = 0.8024	0.208 ± 0.11	1286.11 ± 2.6	207.7 ± 23
293.15 K, x1 = 0.8885	0.174 ± 0.098	1298.72 ± 2.6	266.5 ± 30
293.15 K, x1 = 1	0.085 ± 0.068	1312.33 ± 2.7	417.9 ± 50
298.15 K, x1 = 0.1004	4.28 ± 0.55	942.92 ± 1.9	1.52 ± 0.15
298.15 K, x1 = 0.2003	3.2 ± 0.46	1049.89 ± 2.1	4.361 ± 0.44
298.15 K, x1 = 0.3013	2.21 ± 0.37	1122.41 ± 2.2	9.572 ± 0.96
298.15 K, x1 = 0.3996	1.46 ± 0.29	1171.47 ± 2.4	20.18 ± 2
298.15 K, x1 = 0.4999	0.834 ± 0.21	1210.15 ± 2.4	45.13 ± 4.5
298.15 K, x1 = 0.5996	0.588 ± 0.18	1240.19 ± 2.5	62.96 ± 6.3
298.15 K, x1 = 0.7001	0.47 ± 0.16	1264.41 ± 2.5	87.6 ± 8.9
298.15 K, x1 = 0.8024	0.286 ± 0.12	1282.71 ± 2.6	154.3 ± 16
298.15 K, x1 = 0.8885	0.236 ± 0.11	1294.92 ± 2.6	195.6 ± 21
298.15 K, x1 = 1	0.123 ± 0.082	1308.61 ± 2.7	302.6 ± 35
303.15 K, x1 = 0.1004	4.56 ± 0.58	938.82 ± 1.9	1.412 ± 0.14
303.15 K, x1 = 0.2003	3.51 ± 0.49	1045.59 ± 2.1	3.908 ± 0.39
303.15 K, x1 = 0.3013	2.5 ± 0.4	1117.84 ± 2.2	8.303 ± 0.83
303.15 K, x1 = 0.3996	1.7 ± 0.32	1167.21 ± 2.3	16.91 ± 1.7
303.15 K, x1 = 0.4999	0.997 ± 0.23	1205.98 ± 2.4	36.59 ± 3.7
303.15 K, x1 = 0.5996	0.719 ± 0.2	1236.29 ± 2.5	50.09 ± 5
303.15 K, x1 = 0.7001	0.585 ± 0.18	1260.73 ± 2.5	68.7 ± 6.9
303.15 K, x1 = 0.8024	0.372 ± 0.14	1279.28 ± 2.6	117.1 ± 12
303.15 K, x1 = 0.8885	0.308 ± 0.13	1291.38 ± 2.6	147 ± 16
303.15 K, x1 = 1	0.171 ± 0.097	1304.81 ± 2.6	223.3 ± 25
308.15 K, x1 = 0.1004	4.84 ± 0.6	934.73 ± 1.9	1.315 ± 0.13
308.15 K, x1 = 0.2003	3.83 ± 0.51	1041.36 ± 2.1	3.529 ± 0.35
308.15 K, x1 = 0.3013	2.8 ± 0.42	1113.43 ± 2.2	7.266 ± 0.73
308.15 K, x1 = 0.3996	1.97 ± 0.34	1163.02 ± 2.3	14.47 ± 1.4
308.15 K, x1 = 0.4999	1.19 ± 0.26	1201.89 ± 2.4	30.15 ± 3
308.15 K, x1 = 0.5996	0.87 ± 0.22	1232.29 ± 2.5	40.62 ± 4.1
308.15 K, x1 = 0.7001	0.719 ± 0.2	1257.04 ± 2.5	54.9 ± 5.5
308.15 K, x1 = 0.8024	0.475 ± 0.16	1275.69 ± 2.6	90.99 ± 9.3
308.15 K, x1 = 0.8885	0.392 ± 0.15	1287.73 ± 2.6	112.9 ± 12
308.15 K, x1 = 1	0.231 ± 0.11	1301.05 ± 2.6	169.9 ± 18
313.15 K, x1 = 0.1004	5.13 ± 0.62	930.78 ± 1.9	1.228 ± 0.12
313.15 K, x1 = 0.2003	4.16 ± 0.54	1037.03 ± 2.1	3.204 ± 0.32
313.15 K, x1 = 0.3013	3.1 ± 0.45	1109.04 ± 2.2	6.436 ± 0.64
313.15 K, x1 = 0.3996	2.27 ± 0.37	1158.93 ± 2.3	12.49 ± 1.2
313.15 K, x1 = 0.4999	1.4 ± 0.28	1197.89 ± 2.4	25.23 ± 2.5
313.15 K, x1 = 0.5996	1.04 ± 0.24	1228.43 ± 2.5	33.47 ± 3.4
313.15 K, x1 = 0.7001	0.87 ± 0.22	1253.43 ± 2.5	44.63 ± 4.5
313.15 K, x1 = 0.8024	0.599 ± 0.18	1272.33 ± 2.6	71.79 ± 7.2
313.15 K, x1 = 0.8885	0.491 ± 0.16	1284.14 ± 2.6	88.12 ± 8.9
313.15 K, x1 = 1	0.305 ± 0.13	1297.32 ± 2.6	128.7 ± 13
318.15 K, x1 = 0.1004	5.41 ± 0.65	926.61 ± 1.9	1.153 ± 0.12
318.15 K, x1 = 0.2003	4.49 ± 0.57	1032.73 ± 2.1	2.936 ± 0.29
318.15 K, x1 = 0.3013	3.4 ± 0.48	1104.71 ± 2.2	5.741 ± 0.58
318.15 K, x1 = 0.3996	2.59 ± 0.4	1154.62 ± 2.3	10.85 ± 1.1
318.15 K, x1 = 0.4999	1.63 ± 0.31	1193.83 ± 2.4	21.38 ± 2.1
318.15 K, x1 = 0.5996	1.22 ± 0.26	1224.39 ± 2.5	28 ± 2.8
318.15 K, x1 = 0.7001	1.04 ± 0.24	1249.69 ± 2.5	36.82 ± 3.7
318.15 K, x1 = 0.8024	0.734 ± 0.2	1268.86 ± 2.6	57.48 ± 5.8
318.15 K, x1 = 0.8885	0.603 ± 0.18	1280.51 ± 2.6	70.08 ± 7
318.15 K, x1 = 1	0.393 ± 0.15	1293.59 ± 2.6	100.6 ± 10
323.15 K, x1 = 0.1004	5.69 ± 0.67	922.4 ± 1.9	1.084 ± 0.11
323.15 K, x1 = 0.2003	4.82 ± 0.6	1028.51 ± 2.1	2.695 ± 0.27
323.15 K, x1 = 0.3013	3.7 ± 0.5	1100.31 ± 2.2	5.152 ± 0.52
323.15 K, x1 = 0.3996	2.95 ± 0.44	1150.56 ± 2.3	9.38 ± 0.94
323.15 K, x1 = 0.4999	1.87 ± 0.33	1189.85 ± 2.4	17.96 ± 1.8
323.15 K, x1 = 0.5996	1.42 ± 0.28	1220.51 ± 2.5	23.76 ± 2.4
323.15 K, x1 = 0.7001	1.22 ± 0.26	1245.99 ± 2.5	30.77 ± 3.1
323.15 K, x1 = 0.8024	0.872 ± 0.22	1265.38 ± 2.5	47.05 ± 4.7
323.15 K, x1 = 0.8885	0.73 ± 0.2	1276.87 ± 2.6	56.76 ± 5.7
323.15 K, x1 = 1	0.498 ± 0.17	1289.86 ± 2.6	79.82 ± 8.1
